According to patent US8247211B2, “Glycopeptide antibiotics” (American Cyanamid Company, priority 2001, dated 2012):

Key:
Assay in all cases: In vitro antibacterial evaluation: minimum inhibitory concentration (MIC), broth dilution method
Assay type in all cases: cell-based
Enterococcus sp. = tested on: Enterococcus sp.
In short: (§1)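 First, organisms are seeded at 5×10^5 CFU/mL into Muller-Hinton II […]. Next, antibiotic is applied across 64-0.06 μg/mL by broth dilution (NCCLS M7-A2). Finally, the lowest inhibitory concentration is recorded as MIC.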

Escherichia coli = tested on: Escherichia coli
In short: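 Susceptibility determined by NCCLS-recommended broth dilution (M7-A2), Muller-Hinton II […]. Concentration span 64-0.06 μg/mL, inoculum 5×10^5 CFU/mL. Isolates include strains resistant to methicillin, penicillin and/or vancomycin.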

Staphylococcus sp. = conditions: broth dilution, 18 hours at 35° C.
In short: as §1

Streptococcus sp. = tested on: Streptococcus sp.
In short: as §1

[1] = broth dilution, inoculum 5×10^5 CFU/mL, 18 hours at 35° C.

CC(=O)n1cc(C2OCC3OC(OC4C(CO)OC(Oc5ccc(CC6NC(=O)C(C(C)c7ccccc7)NC(=O)CNC(=O)C(CO)NC(=O)C(C(O)C7CNC(=N)N7C7OC(CO)C(O)C(O)C7O)NC(=O)C(C(O)C7CNC(=N)N7)NC6=O)cc5)C(O)C4O)C(O)C(O)C3O2)c2ccccc21 (stereo not drawn) [Example 161, Cyclo[glycyl-β-methylphenylalanyl-O-[4-O-[4,6-O-[1-(acetylindol-3-yl)methylene]hexopyranosyl]hexopyranosyl]tyrosyl-3-(2-iminoimidazolidin-4-yl)seryl-3-(3-hexopyranosyl-2-iminoimidazolidin-4-yl)serylseryl]]
16 µg/mL: MIC Enterococcus avium (GC 4558) (Enterococcus sp.; [1]) | MIC Enterococcus faecalis (ATCC 29212) (Enterococcus sp.; [1]) | MIC Enterococcus faecalis (GC 4552) (Enterococcus sp.; [1]) | MIC Enterococcus faecalis (GC 4553) (Enterococcus sp.; [1]) | MIC Enterococcus faecalis (GC 4554) (Enterococcus sp.; [1]) | MIC Enterococcus faecalis (GC 6189) (Enterococcus sp.; [1]) | MIC Enterococcus faecium (GC 2243) (Enterococcus sp.; [1]) | MIC Enterococcus faecium (GC 4556) (Enterococcus sp.; [1]) | MIC Enterococcus faecalis (ATCC 29212) (Enterococcus sp.; strain ATCC 29212) | MIC Enterococcus faecalis (GC 2242) (Enterococcus sp.; strain GC 2242) | MIC Enterococcus faecium (GC 2243) (Enterococcus sp.; strain GC 2243) | MIC Enterococcus faecalis (GC 2691) (Enterococcus sp.; strain GC 2691) | MIC Enterococcus faecalis (GC 3059) (Enterococcus sp.; strain GC 3059) | MIC Enterococcus faecalis (GC 4552) (Enterococcus sp.; strain GC 4552) | MIC Enterococcus faecalis (GC 4553) (Enterococcus sp.; strain GC 4553) | MIC Enterococcus faecalis (GC 4554) (Enterococcus sp.; strain GC 4554) | MIC Enterococcus faecium (GC 4556) (Enterococcus sp.; strain GC 4556) | MIC Enterococcus avium (GC 4558) (Enterococcus sp.; strain GC 4558) | MIC Enterococcus faecalis (GC 6189) (Enterococcus sp.; strain GC 6189)
8 µg/mL: MIC Enterococcus faecium (GC 4557) (Enterococcus sp.; [1]) | MIC Enterococcus faecium (GC 4557) (Enterococcus sp.; strain GC 4557) | MIC Coagulase Negative Staphylococcus (GC 4551) (Staphylococcus sp.; 5×10^5 CFU/mL) | MIC Staphylococcus aureus (GC 1131) (Staphylococcus sp.; 5×10^5 CFU/mL) | MIC Staphylococcus aureus (GC 3051) (Staphylococcus sp.; 5×10^5 CFU/mL) | MIC Staphylococcus aureus (GC 3053) (Staphylococcus sp.; 5×10^5 CFU/mL) | MIC Staphylococcus aureus (GC 4544) (Staphylococcus sp.; 5×10^5 CFU/mL) | MIC Staphylococcus aureus (GC 1131) (Staphylococcus sp.; strain GC 1131) | MIC Staphylococcus aureus (GC 3051) (Staphylococcus sp.; strain GC 3051) | MIC Staphylococcus aureus (GC 3053) (Staphylococcus sp.; strain GC 3053) | MIC Staphylococcus aureus (GC 4544) (Staphylococcus sp.; strain GC 4544) | MIC Coagulase Negative Staphylococcus (GC 4551) (Staphylococcus sp.; strain GC 4551)
0.12 µg/mL: MIC Streptococcus pneumoniae (GC 1894) (Streptococcus sp.; strain GC 1894)
4 µg/mL: MIC Coagulase Negative Staphylococcus (GC 4547) (Staphylococcus sp.; 5×10^5 CFU/mL) | MIC Staphylococcus aureus (ATCC 29213) (Staphylococcus sp.; 5×10^5 CFU/mL) | MIC Staphylococcus aureus (GC 4541) (Staphylococcus sp.; 5×10^5 CFU/mL) | MIC Staphylococcus aureus (GC 4542) (Staphylococcus sp.; 5×10^5 CFU/mL) | MIC Staphylococcus aureus (GC 4545) (Staphylococcus sp.; 5×10^5 CFU/mL) | MIC Staphylococcus aureus-SMITH (GC 4543) (Staphylococcus sp.; 5×10^5 CFU/mL) | MIC Staphylococcus haemolyticus (GC 4546) (Staphylococcus sp.; 5×10^5 CFU/mL) | MIC Staphylococcus aureus (ATCC 29213) (Staphylococcus sp.; strain ATCC 29213) | MIC Staphylococcus aureus (GC 4541) (Staphylococcus sp.; strain GC 4541) | MIC Staphylococcus aureus (GC 4542) (Staphylococcus sp.; strain GC 4542) | MIC Staphylococcus aureus-SMITH (GC 4543) (Staphylococcus sp.; strain GC 4543) | MIC Staphylococcus aureus (GC 4545) (Staphylococcus sp.; strain GC 4545) | MIC Staphylococcus haemolyticus (GC 4546) (Staphylococcus sp.; strain GC 4546) | MIC Coagulase Negative Staphylococcus (GC 4547) (Staphylococcus sp.; strain GC 4547)
1 µg/mL: MIC Streptococcus pyogenes (GC 4563) (Streptococcus sp.; strain GC 4563) | MIC Streptococcus agalactiae (GC 4564) (Streptococcus sp.; strain GC 4564)
2 µg/mL: MIC Escherichi coli (GC 4560) (Escherichia coli; strain GC 4560) | MIC Coagulase Negative Staphylococcus (GC 4548) (Staphylococcus sp.; 5×10^5 CFU/mL) | MIC Coagulase Negative Staphylococcus (GC 4549) (Staphylococcus sp.; 5×10^5 CFU/mL) | MIC Coagulase Negative Staphylococcus (GC 6257) (Staphylococcus sp.; 5×10^5 CFU/mL) | MIC Coagulase Negative Staphylococcus (GC 4548) (Staphylococcus sp.; strain GC 4548) | MIC Coagulase Negative Staphylococcus (GC 4549) (Staphylococcus sp.; strain GC 4549) | MIC Coagulase Negative Staphylococcus (GC 6257) (Staphylococcus sp.; strain GC 6257)
>64 µg/mL: MIC Escherichia coli (ATCC 25922) (Escherichia coli; strain ATCC 25922) | MIC Escherichia coli (GC 4559) (Escherichia coli; strain GC 4559)
0.5 µg/mL: MIC Streptococcus pneumoniae (ATCC 6301) (Streptococcus sp.; strain ATCC 6301) | MIC Streptococcus pneumoniae (GC 4565) (Streptococcus sp.; strain GC 4565)
